# Assay results as given in PubChem BioAssay (NCI).
#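 A five-concentration, 48-hour dose response in 96-well plates underlies each endpoint, interpolated linearly between surrounding concentrations. Here, GI50 denotes the concentration required for 50% inhibition of growth. TGI: total growth inhibition.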
# Assays:
# Assay in all cases: growth of human tumour cells (NCI), 48 h
# [1] = test system: SNB-75 CNS
# [2] = test system: MDA-N
# [3] = test system: OVCAR-3 ovarian
# [4] = test system: RXF 393 renal
# [5] = test system: SK-MEL-2 melanoma
# [6] = test system: NCI-H23 lung
# [7] = test system: LOX IMVI melanoma
# [8] = test system: A549 NSCLC
# [9] = test system: MDA-MB-231 breast
# [10] = test system: RPMI-8226 leukemia
# [11] = test system: 786-0 renal
# [12] = test system: SNB-19 CNS
# [13] = test system: HCT-15 colon
# [14] = test system: IGROV1 ovarian
SMILES,TGI [1] [µM],TGI [2] [µM],TGI [3] [µM],TGI [4] [µM],TGI [5] [µM],TGI [6] [µM],TGI [7] [µM],TGI [8] [µM],TGI [9] [µM],TGI [10] [µM],TGI [11] [µM],TGI [12] [µM],TGI [13] [µM],TGI [14] [µM],GI50 [6] [µM],GI50 [7] [µM],GI50 [8] [µM],GI50 [10] [µM],GI50 [13] [µM],GI50 [14] [µM]
Cn1c(N/N=C/c2ccc(Cl)cc2)nc(-c2ccc(Cl)cc2)c(C#N)c1=O,73.2,> 100,32.7,57.8,33.1,38.6,57.6,39.2,48.8,> 100,29.8,> 100,> 100,25.6,,,,,,
Cc1nc2ccccc2n1CCc1nc2ccccc2s1,> 100,> 100,> 100,> 100,> 100,> 100,> 100,> 100,> 100,> 100,> 100,> 100,> 100,> 100,,,,,,
Fc1cccc2nc(-c3ccccc3)cc(OCc3ccccc3)c12,> 100,> 100,> 100,> 100,> 100,> 100,> 100,> 100,> 100,> 100,> 100,> 100,> 100,> 100,,,,,,
COc1ccc(N=C/C=C/Nc2ccc(OC)cc2)cc1,33.1,14.4,3.45,18.5,31,41.2,5.45,25.2,6.02,30.4,15.6,10.4,14.9,25.1,,,,,,
COc1ccc(-c2cc(-c3ccc(Nc4ccnc5cc(Cl)ccc45)cc3)nc(N)c2C#N)c2ccccc12,> 100,> 100,,> 100,> 100,> 100,> 100,> 100,> 100,> 100,> 100,> 100,> 100,> 100,,,,,,
C=C(Br)CN(C#N)CC(=C)Br,> 100,> 100,> 100,> 100,> 100,> 100,> 100,> 100,> 100,> 100,> 100,> 100,> 100,> 100,,,,,,
Cn1c2ccccc2n2c3nc4ccccc4nc3c(C#N)c12,> 100,> 100,> 100,> 100,> 100,> 100,> 100,> 100,> 100,> 100,> 100,> 100,> 100,> 100,,,,,,
CCn1c2c(c3c(C(=O)OC)c(O)ccc31)C(=O)c1ccccc1C2=O,39.9,29.9,63.1,52.6,30.5,48.7,71.6,38.9,51.5,27.2,25.4,> 100,30.1,15.3,,,,,,
NNC(=O)c1ccccc1NC(=O)/C(=C/c1ccccc1)NC(=O)c1ccccc1,> 100,> 100,> 100,> 100,> 100,> 100,> 100,> 100,> 100,> 100,> 100,> 100,> 100,> 100,,,,,,
COc1ccc(-c2cn3c(n2)sc2cc(C)ccc23)cc1,37.3,58.4,> 100,35.8,37.1,> 100,> 100,> 100,42.4,> 100,59.8,> 100,> 100,42.1,,,,,,
CCCCCCCCOCC1S(=O)(=O)OCCOS1(=O)=O,> 100,> 100,> 100,> 100,> 100,> 100,> 100,> 100,> 100,> 100,> 100,> 100,> 100,> 100,,,,,,
CO[P@]1(=O)O[C@@H](c2ccccc2)[C@H](O)[C@]1(O)c1ccccc1,> 100,> 100,> 100,> 100,> 100,> 100,> 100,> 100,> 100,> 100,> 100,> 100,> 100,> 100,,,,,,
CCCCCc1c(CCCC)c(=O)[nH]c2cc(CNCC(OC)OC)ccc12,29.3,24,32.3,27.1,28.4,32.8,18.8,25.7,29.3,13.8,18.1,26.2,23.8,29.6,,,,,,
Clc1ccc(OCc2nnc(CCCCCCCCc3nnc(COc4ccc(Cl)cc4Cl)o3)o2)c(Cl)c1,> 100,> 100,,> 100,> 100,> 100,,> 100,> 100,> 100,> 100,> 100,> 100,> 100,,,,,,
Cc1ccc2[nH]c(=O)c(-c3cnc(=O)[nH]n3)c(O)c2c1,> 100,> 100,> 100,> 100,> 100,> 100,> 100,> 100,> 100,> 100,> 100,,> 100,> 100,,,,,,
O=C1/C(=C/c2cccs2)N=C(c2ccccc2)N1C1Nc2cc3c(cc2S1)NC(N1C(=O)/C(=C/c2cccs2)N=C1c1ccccc1)S3 (stereo not drawn),83.2,41,> 100,78.8,36.9,43.6,33.7,> 100,> 100,51.7,43.1,,34.7,> 100,,,,,,
CCN(CC)C(=O)CCCCCCCCC1CO1 (stereo not drawn),> 100,> 100,> 100,> 100,> 100,> 100,> 100,> 100,> 100,> 100,> 100,> 100,> 100,> 100,,,,,,

SMILES,TGI [1] [µM],TGI [2] [µM],TGI [3] [µM],TGI [4] [µM],TGI [5] [µM],TGI [6] [µM],TGI [7] [µM],TGI [8] [µM],TGI [9] [µM],TGI [10] [µM],TGI [11] [µM],TGI [12] [µM],TGI [13] [µM],TGI [14] [µM],GI50 [6] [µM],GI50 [7] [µM],GI50 [8] [µM],GI50 [10] [µM],GI50 [13] [µM],GI50 [14] [µM]
S=C1CC(c2ccc(Cl)cc2)Sc2ccccc2N1 (stereo not drawn),> 10,> 100,68,48.6,,> 100,> 100,> 100,> 100,> 100,> 100,94,> 100,> 100,,,,,,
O=c1[nH]cnc2c1ncn2[C@H]1CO[C@@H](CO)[C@@H]1O,> 100,> 100,> 100,> 100,> 100,> 100,> 100,,> 100,> 100,> 100,,> 100,> 100,,,,,,
O=[N+]([O-])C(=C(NCc1ccccc1)NCc1ccccc1)C(Cl)=C(Cl)Cl,43.5,74.7,69.2,98.4,,96.9,37.8,> 100,81.2,68.4,> 100,> 100,62.8,> 100,,,,,,
CC1(C)C2CCC1C(=O)C(C=O)C2 (stereo not drawn),> 100,> 100,> 100,> 100,> 100,> 100,> 100,> 100,> 100,> 100,> 100,> 100,> 100,> 100,,,,,,
COc1ccc2c(c1)CC[C@@H]1[C@@H]2CC[C@]2(C)/C(=N/OCCN3CCCCC3)CC[C@@H]12,18.2,5.9,15,8.17,18.7,25,3.8,19.8,23.6,6.35,3.41,21,6.23,5.6,,,,,,
CN(C)c1ccc(/C=N/NC2=N/C(=C\c3ccco3)C(=O)N2)cc1,> 100,> 100,> 100,> 100,> 100,> 100,> 100,> 100,> 100,> 100,> 100,> 100,> 100,> 100,,,,,,
NS(=O)(=O)c1ccc(/C=C/c2cccc(O)c2)cc1,99,> 100,80.4,> 100,78.2,> 100,> 100,> 100,> 100,57.7,> 100,> 100,> 100,> 100,46.1,43,19.8,18.9,22.8,30.2
O=C1CC(O)c2c(Cl)sc(Cl)c21 (stereo not drawn),29.5,44.2,12.9,12.2,31.2,35.6,5.24,36.2,> 61.3,59.7,11.2,40.2,11.3,22.1,,,,,,
CC(=O)Oc1ccc2c(c1)CC[C@@H]1C2[C@@H](O[N+](=O)[O-])C[C@@]2(C)C1CC[C@@H]2O (stereo partly drawn),> 85.2,27.9,> 86.9,> 100,> 100,> 100,> 81.2,> 100,> 100,69.7,> 100,> 100,> 100,> 100,,,,,,
C/C(=N/O)c1cccc(Nc2nc3ccccc3c3[nH]c4ccccc4c23)c1,6.95,7.56,5.1,4.59,5.8,11.8,6.06,8.8,11.5,,6.96,19.2,10.6,13.3,,,,,,
COc1cccc(C2c3cc4c(cc3OC(N3CCOCC3)C2C)OCO4)c1O (stereo not drawn),> 100,4.58,30.8,9.43,40.7,52.6,25,66.5,47.5,19.8,53.6,36.4,27.9,53.7,,,,,,
NC1CCC(c2cc3ccccc3s2)(N2CCCCC2)CC1 (stereo not drawn),25.2,3.2,2.81,21.2,2.95,3.23,2.84,8.46,12.9,2.28,2.83,26.8,3.76,3.26,,,,,,
O=S1(=O)c2ccccc2N2CCCc3cc(Cl)cc1c32,29.9,> 100,> 100,51.3,> 100,,> 100,> 100,> 100,,> 100,> 100,> 100,> 100,,,,,,
CN(C)Cc1cc(N=Nc2ccc(Cl)c(Cl)c2)ccc1O,20.3,23.5,19.2,10.7,,28.1,17.9,27.5,18.2,38.8,24.2,27.6,19.1,15.9,,,,,,
COc1cccc(/C=C/C2=NN(c3cccc(S(=O)(=O)O)c3)C3(C2)SCC(=O)N3c2nc3ccccc3s2)c1 (stereo not drawn),> 100,> 100,,> 100,> 100,> 100,40.5,> 100,> 100,52.4,43.1,> 100,> 100,> 100,,,,,,
CC(NC(=O)c1ccc(OP(=O)(OCC2=CC(=O)c3ccccc3C2=O)N(C)CCCCCl)cc1)c1ccc(OCC2CCCCC2)c(C(N)=O)c1 (stereo not drawn),19.5,13,17.4,,30.2,10.2,17.6,5.6,21.3,30.6,28.6,35.1,24.7,21.6,,,,,,
